{"source": "patent US20130123298A1", "about": "“PHARMACEUTICAL COMPOSITION FOR THE PREVENTION OF PERIOPERATIVE ARTERIAL HYPOTENSION IN HUMANS” (LABORATOIRE AGUETTANT, priority 2010, published 2013)", "system": "adult patients under general anesthetic in noncardiac surgery", "format": "in vivo, human", "description": "The study covered 1,534 patients having received perioperative hemodynamic optimization with use of noradrenaline (in the form of noradrenaline tartrate) to maintain blood pressure under general anesthetic in noncardiac surgery in adults.\nThe hemodynamic surveillance is performed non-invasively as blood pressure is taken automatically every 2 minutes when inducing anesthesia, then every 5 minutes during the hemodynamic stability period.\nAdministration of noradrenaline in continuous perfusion with the solution titered at 10 μg/mL.\nThis solution is injected: • firstly as a continuous perfusion, in an automatic syringe pump, whose speed will be modulated as a function of the weight, age, and initial “blood pressure state” of the patient (notion of treated or untreated hypertension), of the presence or absence of epidural anesthesia combined with general anesthesia. • secondly as an isolated perfusion to prevent causing a bolus of NA during the injection of another drug in the perfusion tubing. This isolated perfusion is branched either on an extra venous catheter independent of the venous access used for the anesthetic, or on a multi-lumen catheter of a central venous path, or on a three-way tap located between the peripheral venous catheter and the end of the perfusion tubing.\nThe recommended dosages are 0.02 to 0.08 μg/kg/min of noradrenaline.\nThe suitable dosage is that which delivers blood pressure similar, within a limit of 20% of the preoperative blood pressure of the patient, and systolic blood pressure >100 mmHg\nFor general anesthetic, noradrenaline administration by continuous perfusion with the solution titered at 10 μg/mL must be started 3 to 4 minutes before inducing anesthesia to prevent hypotension caused by the anesthetic.\nThe patient is weaned off noradrenaline during the emergence phase by progressively reducing noradrenaline administration dosages as a function of how well the patient is returning to the preoperative blood pressure.\nThe study covered 1,534 patients 15 to 102 years old (average age 56 years old), with average weight 72 kg (extremes from 33 to 163 kg), mean preoperative blood pressure 138 mmHg (from 95 to 200 mmHg).\nThe induction procedure for general anesthetic is the same for all the patients: the patients receive 0.2 μg/kg of sufentanil, after 3 minutes 1.5 to 3 mg/kg propofol, then 0.15 mg/kg of cisatracurium.\nThe patients are intubated 3 minutes after the curare injection and ventilated with 8 mL/kg of theoretical weight.\nAnesthesia is maintained using sevoflurane. The perioperative analgesia is handled by continuous injection of remifentanil and/or by iterative injection of sufentanil.\nA continuous perfusion of noradrenaline in solution at 10 μg/mL of noradrenaline is administered 4 minutes before inducing anesthesia.\nThe dosages used are generally comprised between 0.02 and 0.08 μg/kg/min.\nThe patient is weaned off the continuous perfusion of the noradrenaline solution at 10 μg/mL in the emergence phase by progressively reducing the noradrenaline administration dosages as a function of how well the patient is returning to the preoperative blood pressure.\nClinically: non-invasive blood pressure surveillance is performed every 2 minutes when inducing anesthesia, then every 5 minutes during the hemodynamic stability period.\nThe quality of the perioperative hemostasis was always noted.\nThe following elements are systematically monitored and noted in the first 24 hours postoperative: agitation when waking, postoperative nausea and/or vomiting (PONY).\nBiologically: troponin was assayed at D1 in 26.0% of patients judged to be at risk: 99.87% were at zero, one patient has a troponine assay at 0.04 and one patient at 0.05 μg/mL (significance threshold is 0.4 μg/mL). These patients were controlled again and their level had normalized at D2.\nUrea and creatinine assay on D0 and D1 performed on 26.0% of the patients judged to be at higher risk. […]", "key": {"[1]": {"details": "general anesthetic combined with epidural anesthetic"}}, "data": [{"molecule": "NC[C@H](O)c1ccc(O)c(O)c1", "note": "[noradrenaline, 4-[(1R)-2-amino-1-hydroxyethyl]benzene-1,2-diol]", "values": [{"measurement": "effect on blood pressure", "setting": "continuous injection", "result": "immediate, brief, but without tachyphylaxis, long-lasting in continuous injection, rapidly reversible"}, {"measurement": "perioperative blood pressure control", "setting": "five elderly patients with aortal stenosis and hip fracture, general anesthesia", "result": "controlled perioperative blood pressure during general anesthesia without cardiac incidents"}, {"measurement": "duration of blood pressure control", "setting": "[1]", "result": "up to 400 min"}, {"measurement": "tachyphylaxis and vascular filling during prolonged blood pressure control", "setting": "[1]", "result": "without tachyphylaxis and without excess vascular filling"}, {"measurement": "blood pressure control", "setting": "hemodialyzed patients with renal failure, 0.05 to 0.08 μg/kg/min", "result": "blood pressure could be controlled"}, {"measurement": "cases of superficial venous thromboses detected", "setting": "human, in vivo", "result": "five"}, {"measurement": "hypertension needing nicardipine 1 mg bolus as last resort", "setting": "human, in vivo", "result": 26, "unit": "cases"}, {"measurement": "other undesirable effects", "setting": "human, in vivo", "result": "No other undesirable effect"}, {"measurement": "patients with troponin at zero", "setting": "human, in vivo", "result": 99.87, "unit": "%"}, {"measurement": "perioperative urine flows", "setting": "human, in vivo", "result": "net increase"}, {"measurement": "postoperative vomiting", "setting": "human, in vivo", "result": "none of the patients"}, {"measurement": "renal function (urea and creatinine assay)", "setting": "human, in vivo", "result": "no changes to renal function"}, {"measurement": "urea and creatinine postoperative value", "setting": "human, in vivo", "result": "reduction of their postoperative value at D1"}, {"measurement": "postoperative nausea", "setting": "human, in vivo, 24 h", "result": 1.2, "unit": "%"}, {"measurement": "distal peripheral venous thrombosis complications", "setting": "human, in vivo, 4 day", "result": 0.32, "unit": "%"}, {"measurement": "lucidity at emergence and absence of agitation", "setting": "independent of duration of intervention and patient age", "result": "noted in all patients"}, {"measurement": "health risk and surgical outcomes", "setting": "patients over 80 years old (8.5%)", "result": "the health risk was controlled and surgical outcomes were simple"}, {"measurement": "quality of emergence", "setting": "young patients without history, 0.02 μg/kg/h", "result": "better lucidity and quasi-disappearance of postoperative nausea and vomiting"}]}]}
